Test system: muscle stem cells (MuSCs)
Assay: MuSC count in muscle of treated aged mice (FACS, PAX7 immunostaining)
Type: in vivo, mouse
Description: Muscle stem cells (MuSCs) are capable of giving rise to mature muscle fibers, and their regenerative capacity has been reported to be impaired upon aging. […] Consistent with this, PAX7 expression correlated negatively with the first PC of the ceramide synthetic pathway in both human (FIG. 3e) and mouse (FIG. 3f) skeletal muscle. To study whether increased Pax7 transcript abundance in skeletal muscle reflects elevated MuSC count, a7 integrin/CD34 double positive cells were isolated from the hind-limbs using fluorescence-activated cell sorting (FACS).
Stem cell isolation. Gastrocnemius, soleus, and quadriceps muscles from both hindlimbs were excised and transferred into PBS on ice. […] Stained cells were analyzed and sorted using the FACSAria II instrument (BD Biosciences). […]
Histology. […] Microscopy images of fluorescence from muscle fibers were analyzed using the ImageJ software. Centralized nuclei percent, minimal Feret diameter and cross-sectional area in TA muscles were determined using the ImageJ software quantification of laminin, dystrophin, and DAPI-stained muscle images from VS120-S6-W slides scanner (Olympus). […] The mean cross-sectional area of muscle fibers was calculated as the average cross-sectional area of 2,000 fibers per from sample. 7-8 mouse samples per condition were used for histological quantification of donor mice. […] For each quantification, 3 or more mice were used.

With `CCCCCCC(=O)CCCCCCC=CCC(O)C(O)C(N)(CO)C(=O)O` (centres unmarked) [myriocin, 2-Amino-3,4-dihydroxy-2-(hydroxymethyl)-14-oxoicos-6-enoic acid] the “number of PAX7+ muscle cells in TA tissue sections” value (aged myriocin treated mice) was “elevated number” and the “number of MuSCs in hindlimbs (a7 integrin/CD34 double positive cells, FACS)” value (young, aged, and aged myriocin treated mice) was “restored the MuSC pool of aged mice close to that of young mice”.
